Measured values reported in ChEMBL document CHEMBL2177023, “Effects of antimalarial molecules on the gametocyte stage of Plasmodium falciparum: the debate” (J Med Chem, 2012).
Blank lines part the entries; values can stand above or below the compound they belong to.

What was measured:
[1] = (§1) Half life in human plasma; assay type: ADME, cell-free
[2] = test system: Plasmodium falciparum; experiment: Antimalarial activity against Plasmodium falciparum KT1 gametocytes; assay type: functional, organism-based
[3] = test system: Plasmodium falciparum; experiment: Antimalarial activity against Plasmodium falciparum KT3 gametocytes; assay type: functional, organism-based
[4] = test system: Plasmodium falciparum; experiment: Antimalarial activity against Plasmodium falciparum stage 3 to 5 gametocytes; assay type: functional, organism-based
[5] = test system: Plasmodium falciparum; experiment: Antimalarial activity against transgenic Plasmodium falciparum 3D7 GFP16B gametocytes; assay type: functional, organism-based
[6] = test system: Plasma; experiment: as §1; assay type: ADME, cell-free
[7] = test system: Plasmodium chabaudi; experiment: Antimalarial activity against Plasmodium chabaudi infected rat malaria model; assay type: functional
[8] = test system: Plasmodium berghei; experiment: Antimalarial activity against Plasmodium berghei infected in mosquitoes assessed as reduction in number of sporozoites; assay type: functional; design: scale not given: the % may be the effect or the level left
[9] = test system: Plasmodium berghei; experiment: Antimalarial activity against Plasmodium berghei infected in mosquitoes assessed as reduction in number of oocysts; assay type: functional; design: scale not given: the % may be the effect or the level left
[10] = test system: Plasmodium falciparum; experiment: Antimalarial activity against Plasmodium falciparum gametocytes; assay type: functional, organism-based
[11] = test system: Plasmodium falciparum; experiment: Antimalarial activity against Plasmodium falciparum gametocytes by GFP-luciferase reporter gene assay; assay type: functional, organism-based

half-life [1]: 14 days
SMILES: COc1cc(C)c2c(Oc3cccc(C(F)(F)F)c3)c(OC)cc(NC(C)CCCN)c2n1 (stereo unspecified) [TAFENOQUINE]

IC50 [2]: 600 nM | IC50 [3]: 600 nM
SMILES: CN(C)Cc1ccc(Nc2c3ccccc3nc3ccccc23)cc1

IC50 [4]: 2 nM
SMILES: CC[C@H](C)[C@H](NC(=O)[C@H]([C@@H](C)CC)N(C)C(C)=O)C(=O)N[C@H](C(=O)N[C@@H](CC(C)C)C(=O)[C@@]1(C)CO1)[C@@H](C)O [EPOXOMYCIN]

IC50 [2]: 6 nM | IC50 [5]: 23 nM | IC50 [3]: 20 nM
SMILES: COc1ccc2nc3cc(Cl)ccc3c(Nc3cc(CN4CCCC4)c(O)c(CN4CCCC4)c3)c2n1 [PYRONARIDINE]

IC50 [2]: 800 nM | t1/2 [6]: 0.03 weeks | IC50 [3]: 2100 nM
SMILES: COc1cc(NC(C)CCCN)c2ncccc2c1 (stereo unspecified) [PRIMAQUINE]

SMILES: COc1cc2cc(C(=O)Nc3cc(N)c4ccccc4c3CCCl)[nH]c2c(OC)c1OC [CENTANAMYCIN]
ED50 [7]: 1.5 mg/kg | Activity [8]: 99% | Activity [9]: 83%

SMILES: COc1cc(N[C@H](C)CCCN)c2nccc(C)c2c1Oc1ccc(Cl)c(Cl)c1
IC50 [10]: 3800 nM

SMILES: C=C(NC(=O)C(=C)NC(=O)c1csc(C2=N[C@@H]3c4csc(n4)[C@H]4NC(=O)c5csc(n5)[C@H]([C@](C)(O)[C@@H](C)O)NC(=O)[C@H]5CSC(=N5)/C(=C/C)NC(=O)[C@H]([C@@H](C)O)NC(=O)c5csc(n5)[C@]3(CC2)NC(=O)[C@H](C)NC(=O)C(=C)NC(=O)[C@H](C)NC(=O)[C@H]([C@@H](C)CC)N[C@@H]2C=Cc3c([C@H](C)O)cc(nc3[C@H]2O)C(=O)O[C@@H]4C)n1)C(N)=O [THIOSTREPTON]
IC50 [10]: < 10000 nM

IC50 [11]: 12 nM
SMILES: CN(C)c1ccc2nc3ccc(=[N+](C)C)cc-3sc2c1 [METHYLENE BLUE CATION]
